Values after ≈ are worked out from the molar mass of the structure shown. Like-named read-outs stand apart in the source and are kept apart here.
Assays:
[1] = tested on: E. coli clinical strain 2018XJ105; test: microbe, parasite or virus in culture; type: cell-based, Escherichia coli
Procedure: (§1) All the florfenicol-polyarginine conjugates were tested against Gram-positive and Gram-negative bacteria, including MRSA (ATCC 43300), S. aureus (ATCC 25923), E. coli (ATCC 25922), clinical strains of E. coli (2019XJ06, 2019XJ25, 2018XJ108, 2018XJ105, 2018XJ30) and clinical strains of florfenicol resistant E. coli (2017XJ30, 2019XJ20).
(§2) Gram-negative E. coli (ATCC 25922), clinical strains of E. coli (2019XJ06, 2019XJ25, 2018XJ108, 2018XJ105, 2018XJ30) and clinical strains of florfenicol resistant E. coli (2017XJ30, 2019XJ20) and Gram-positive MRSA (ATCC 43300) and S. aureus (ATCC 25923) were maintained in 50% glycerol at −80°C up to the time of use. The bacterial strains were cultured in Muller-Hinton broth (Guangdong Huan Kai Microbial Sci. &Tech. Co., Ltd. in China) media. Mueller-Hinton agar (Guangdong Huan Kai Microbial Sci. & Tech. Co., Ltd. in China) was used as growth medium in solid media.
(§3) CLSI guidelines were followed for determining MICs of all florfenicol-polyarginine conjugates by the broth microdilution method. The required bacterial (E. coli, S. aureus and MRSA) single colony was inoculated into Muller-Hinton broth (MHB) and cultured for 4–6 h. And then, the bacteria were adjusted to 10^6 CFU/ml in cultures. All compounds were prepared into a stock solution at a concentration of 0.1 mol/L with DMSO. The stock solutions were then diluted to required concentration (100, 50, 25, 12.5, 6.25, 3.125, 1.56, 0.78, 0.39 μmol/L) with MHB media. Subsequently, a 96 well plate was filled with these dilutions and 10^6 CFU/ml bacterial suspension. The diluted compounds of different concentrations (100 µl) were first added to 96 well plate, and then 100 µl bacterial dilutions (10^6 CFU/ml) was added. The negative and positive controls were 200 µl of MHB media and 100 µl of bacterial suspension combined with 100 µl of MHB media, respectively. The experiment of each compound was repeated three times, and each experiment was at least twice repeated. The 96 well plates were incubated at 37°C for 16–24 h. MIC indicated antibacterial activity. Florfenicol was used as a control drug.

[2] = tested on: E. coli clinical strain 2018XJ108; test: microbe, parasite or virus in culture; type: cell-based, Escherichia coli
Procedure: as §1, §2, §3

[3] = tested on: E. coli clinical strain 2018XJ30; test: microbe, parasite or virus in culture; type: cell-based, Escherichia coli
Procedure: as §1, §2, §3

[4] = tested on: E. coli clinical strain 2019XJ06; test: microbe, parasite or virus in culture; type: cell-based, Escherichia coli
Procedure: as §1, §2, §3

[5] = tested on: E. coli clinical strain 2019XJ25; test: microbe, parasite or virus in culture; type: cell-based, Escherichia coli
Procedure: as §1, §2, §3

[6] = tested on: E.coli (ATCC 25922); test: microbe, parasite or virus in culture; type: cell-based, Escherichia coli
Procedure: as §1, §2, §3

[7] = tested on: florfenicol resistant E. coli clinical strain 2017XJ30; test: microbe, parasite or virus in culture; type: cell-based, Escherichia coli
Procedure: as §1, §2, §3

[8] = tested on: florfenicol resistant E. coli clinical strain 2019XJ20; test: microbe, parasite or virus in culture; type: cell-based, Escherichia coli
Procedure: as §1, §2, §3

[9] = tested on: S. aureus (ATCC 292130); test: microbe, parasite or virus in culture; type: cell-based, Staphylococcus aureus
[10] = tested on: MRSA (ATCC 43300); test: microbe, parasite or virus in culture; type: cell-based, methicillin-resistant S. aureus
Procedure: as §1, §2, §3

[11] = tested on: E. coli; test: Propensity of bacterial resistance development (serial passage at 0.5 MIC); type: cell-based, Escherichia coli
Procedure: It is crucial to evaluate the potential emergence of resistance from these compounds. […] The process was repeated for 16 passages. […] However, E. coli became resistant to FFC after only a few days. Therefore, these conjugates can be to combat drug-resistant bacteria.
Compound E6 was used to evaluate the tendency of developing bacterial resistance towards the florfenicol-polyarginine conjugates. The control antibiotic florfenicol was chosen for E. coli. MIC of E6 and florfenicol for 24 h were determined against E. coli., and then 0.5 MIC of E6 and florfenicol was challenged repeatedly against E. coli. After the initial MIC experiment, serial passage was investigated by transferring the growing bacterial suspension at sub-MIC of the compounds (MIC/2) and MIC in every passage was determined again. The process was repeated for 16 passages. The MICs for E6 and florfenicol corresponding to days were draw into figure to determine the propensity of bacterial resistance development.

[12] = tested on: 10 strains tested (E. coli, S. aureus, MRSA, clinical E. coli strains); test: microbe, parasite or virus in culture; type: cell-based
Procedure: as §1, §2, §3

Question: CS(=O)(=O)c1ccc([C@@H](O)[C@@H](CF)NC(=O)C(Cl)Cl)cc1 [Florfenicol] was tested. Which MIC ([1]; Escherichia coli, clinical E. coli 2018XJ105, MHB, read-out: MIC) did it give?
Answer: 6.25 µM (≈ 2.24 µg/mL)

Question: What about the MIC ([2]; Escherichia coli, clinical E. coli 2018XJ108, MHB, read-out: MIC) of the same molecule?
Answer: 6.25 µM (≈ 2.24 µg/mL)

Question: What about the MIC ([3]; Escherichia coli, clinical E. coli 2018XJ30, MHB, read-out: MIC) of the same molecule?
Answer: 6.25 µM (≈ 2.24 µg/mL)

Question: And the MIC ([4]; Escherichia coli, clinical E. coli 2019XJ06, MHB, read-out: MIC)?
Answer: 6.25 µM (≈ 2.24 µg/mL)

Question: What about the MIC ([5]; Escherichia coli, clinical E. coli 2019XJ25, MHB, read-out: MIC) of the same molecule?
Answer: 6.25 µM (≈ 2.24 µg/mL)

Question: What about the MIC ([6]; Escherichia coli, ATCC25922, E.coli (ATCC 25922), MHB, read-out: MIC) of the same molecule?
Answer: 6.25 µM (≈ 2.24 µg/mL)

Question: And the MIC ([7]; Escherichia coli, florfenicol resistant E. coli 2017XJ30, MHB, read-out: MIC)?
Answer: > 100 µM

Question: And the MIC ([8]; Escherichia coli, florfenicol resistant E. coli 2019XJ20, MHB, read-out: MIC)?
Answer: > 100 µM

Question: What about the MIC ([9]; Staphylococcus aureus, ATCC292130, S. aureus (ATCC 292130), MHB, read-out: MIC) of the same molecule?
Answer: 6.25 µM (≈ 2.24 µg/mL)

Question: What about the MIC ([10]; Staphylococcus aureus, MRSA (ATCC 43300), MHB, read-out: MIC) of the same molecule?
Answer: 6.25 µM (≈ 2.24 µg/mL)

Question: And the “change of MIC after 16 passages” value [11]?
Answer: 2 fold

Question: For N=C(N)NCCC[C@H](NC(=O)[C@H](CCCNC(=N)N)NC(=O)[C@H](CCCNC(=N)N)NC(=O)[C@H](CCCNC(=N)N)NC(=O)[C@H](CCCNC(=N)N)NC(=O)[C@@H](N)CCCNC(=N)N)C(N)=O [Compound D5], which MIC ([1]; clinical strain 2018XJ105) is on record?
Answer: 100 µM (≈ 95.4 µg/mL)

Question: What about the MIC ([2]; clinical strain 2018XJ108) of the same molecule?
Answer: 100 µM (≈ 95.4 µg/mL)

Question: And the MIC ([3]; clinical strain 2018XJ30)?
Answer: 100 µM (≈ 95.4 µg/mL)

Question: And the MIC ([4]; clinical strain 2019XJ06)?
Answer: 100 µM (≈ 95.4 µg/mL)

Question: And the MIC ([5]; clinical strain 2019XJ25)?
Answer: 100 µM (≈ 95.4 µg/mL)

Question: And the MIC ([6]; ATCC 25922)?
Answer: 100 µM (≈ 95.4 µg/mL)

Question: What about the MIC ([7]; florfenicol resistant clinical strain 2017XJ30) of the same molecule?
Answer: 100 µM (≈ 95.4 µg/mL)

Question: And the MIC ([8]; florfenicol resistant clinical strain 2019XJ20)?
Answer: 100 µM (≈ 95.4 µg/mL)

Question: What about the MIC ([9]; ATCC 292130) of the same molecule?
Answer: 50 µM (≈ 47.7 µg/mL)

Question: What about the MIC ([10]; ATCC 43300) of the same molecule?
Answer: 50 µM (≈ 47.7 µg/mL)

Question: What about the MIC [12] of the same molecule?
Answer: 25 to 100 µM

— paper PMC9284121, “Florfenicol-Polyarginine Conjugates Exhibit Promising Antibacterial Activity Against Resistant Strains” (Frontiers in Chemistry, 2022)
